Data published in PubChem BioAssay (NCI).
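Where inhibition never reached the appropriate level, the endpoint shown equals the highest concentration tested. Otherwise, values were interpolated linearly from a five-concentration, 48-hour dose response in 96-well plates. GI50 = concentration required for 50% inhibition of growth. TGI: total growth inhibition.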

What was measured:
Assay in all cases: NCI-60 cell line screen, 48 h
[1] = test system: 786-0 renal
[2] = test system: A498 renal
[3] = test system: A549 NSCLC
[4] = test system: ACHN renal
[5] = test system: BT-549 breast
[6] = test system: CAKI-1 renal
[7] = test system: CCRF-CEM leukemia
[8] = test system: COLO 205 colon
[9] = test system: DU-145 prostate
[10] = test system: EKVX NSCLC
[11] = test system: HCC-2998 colon
[12] = test system: HCT-116 colon
[13] = test system: HCT-15 colon
[14] = test system: HL-60(TB) leukemia
[15] = test system: HOP-62 NSCLC
[16] = test system: HS 578T breast
[17] = test system: HT29 colon
[18] = test system: IGROV1 ovarian
[19] = test system: K-562 leukemia
[20] = test system: KM12 colon
[21] = test system: LOX IMVI melanoma
[22] = test system: M14 melanoma
[23] = test system: MALME-3M melanoma
[24] = test system: MCF7 breast
[25] = test system: MDA-MB-231 breast
[26] = test system: MDA-MB-435
[27] = test system: MDA-MB-468 breast
[28] = test system: MOLT-4 leukemia
[29] = test system: NCI-H226 lung
[30] = test system: NCI-H23 lung
[31] = test system: NCI-H460 lung
[32] = test system: NCI-H522 lung
[33] = test system: NCI/ADR-RES ovarian
[34] = test system: OVCAR-3 ovarian
[35] = test system: OVCAR-4 ovarian
[36] = test system: OVCAR-5 ovarian
[37] = test system: OVCAR-8 ovarian
[38] = test system: PC-3 prostate
[39] = test system: RPMI-8226 leukemia
[40] = test system: RXF 393 renal
[41] = test system: SF-268 CNS
[42] = test system: SF-295 CNS
[43] = test system: SF-539 CNS
[44] = test system: SK-MEL-2 melanoma
[45] = test system: SK-MEL-28 melanoma
[46] = test system: SK-MEL-5 melanoma
[47] = test system: SK-OV-3 ovarian
[48] = test system: SN12C renal
[49] = test system: SNB-19 CNS
[50] = test system: SR leukemia
[51] = test system: SW-620 colon
[52] = test system: T-47D breast
[53] = test system: TK-10 renal
[54] = test system: U251 CNS
[55] = test system: UACC-257 melanoma
[56] = test system: UACC-62 melanoma
[57] = test system: UO-31 renal

In the case of `COc1ccc(C(=O)/C=C/c2cccnc2)cc1S(N)(=O)=O`, the GI50 [1] is reported as 11.2 µM, the TGI [1] is reported as 24.1 µM and the GI50 [2] is reported as 21.7 µM. For the same compound, the TGI [2] was 53.6 µM, the GI50 [3] was 13.8 µM and the TGI [3] was 33.9 µM. For the same compound, the GI50 [4] was 13.5 µM, the TGI [4] was 25.5 µM and the GI50 [5] was 12.9 µM. For the same compound, the TGI [5] was 25.4 µM, the GI50 [6] was 12.7 µM and the TGI [6] was 24.9 µM. For the same compound, the GI50 [7] was 12.6 µM, the TGI [7] was 33.2 µM and the GI50 [8] was 13.7 µM. It also gave a TGI [8] of 29.8 µM, a GI50 [9] of 11.2 µM and a TGI [9] of 22.6 µM. For the same compound, the GI50 [10] was 11.9 µM, the TGI [10] was 24.2 µM and the GI50 [11] was 13.9 µM. It also gave a TGI [11] of 26.1 µM, a GI50 [12] of 3.18 µM and a TGI [12] of 11.7 µM. It also gave a GI50 [13] of 4.18 µM, a TGI [13] of 16.7 µM and a GI50 [14] of 11 µM. The TGI [14] was 32.7 µM, the GI50 [15] was 15.6 µM and the TGI [15] was 33 µM. The GI50 [16] was 21.1 µM, the TGI [16] was 65.6 µM and the GI50 [17] was 5.49 µM. For the same compound, the TGI [17] was 21.2 µM, the GI50 [18] was 12.4 µM and the TGI [18] was 24.7 µM. It also gave a GI50 [19] of 2920 nM, a TGI [19] of 20.5 µM and a GI50 [20] of 3.8 µM. For the same compound, the TGI [20] was 14.4 µM, the GI50 [21] was 4.63 µM and the TGI [21] was 16.1 µM. It also gave a GI50 [22] of 14.3 µM, a TGI [22] of 29 µM and a GI50 [23] of 14.2 µM. The TGI [23] was 27.1 µM, the GI50 [24] was 4.87 µM and the TGI [24] was 18.5 µM. The GI50 [25] was 13.4 µM, the TGI [25] was 25.5 µM and the GI50 [26] was 14.4 µM. For the same compound, the TGI [26] was 31.1 µM, the GI50 [27] was 7.1 µM and the TGI [27] was 20.1 µM. For the same compound, the GI50 [28] was 3.5 µM, the TGI [28] was 15.1 µM and the GI50 [29] was 14.4 µM. The TGI [29] was 32.3 µM, the GI50 [30] was 12 µM and the TGI [30] was 24.1 µM. The GI50 [31] was 9.17 µM, the TGI [31] was 44.9 µM and the GI50 [32] was 10.5 µM. The TGI [32] was 24.1 µM, the GI50 [33] was 23.4 µM and the TGI [33] was 90.2 µM. For the same compound, the GI50 [34] was 10.3 µM, the TGI [34] was 21.6 µM and the GI50 [35] was 16.3 µM. For the same compound, the TGI [35] was 36 µM, the GI50 [36] was 11.9 µM and the TGI [36] was 23.5 µM. For the same compound, the GI50 [37] was 15.1 µM, the TGI [37] was 35.6 µM and the GI50 [38] was 16.5 µM. For the same compound, the TGI [38] was 33.2 µM, the GI50 [39] was 9.08 µM and the TGI [39] was 28.2 µM. The GI50 [40] was 12.3 µM, the TGI [40] was 24.7 µM and the GI50 [41] was 13.6 µM. The TGI [41] was 31.6 µM, the GI50 [42] was 12.8 µM and the TGI [42] was 25.2 µM. The GI50 [43] was 4.32 µM, the TGI [43] was 15.7 µM and the GI50 [44] was 19.4 µM. For the same compound, the TGI [44] was 49.7 µM, the GI50 [45] was 14.9 µM and the TGI [45] was 27.5 µM. For the same compound, the GI50 [46] was 14.8 µM, the TGI [46] was 27.3 µM and the GI50 [47] was 16.7 µM. For the same compound, the TGI [47] was 31.1 µM, the GI50 [48] was 7.37 µM and the TGI [48] was 18.8 µM. For the same compound, the GI50 [49] was 13.4 µM, the TGI [49] was 25.4 µM and the GI50 [50] was 1830 nM. For the same compound, the TGI [50] was 6.68 µM, the GI50 [51] was 6.38 µM and the TGI [51] was 29.5 µM. For the same compound, the GI50 [52] was 8.86 µM, the TGI [52] was 25.6 µM and the GI50 [53] was 13.9 µM. It also gave a TGI [53] of 26.6 µM, a GI50 [54] of 7.44 µM and a TGI [54] of 26.7 µM. For the same compound, the GI50 [55] was 15.7 µM, the TGI [55] was 32.2 µM and the GI50 [56] was 12.8 µM. The TGI [56] was 24.7 µM, the GI50 [57] was 6.05 µM and the TGI [57] was 18.5 µM.
